Literature values as cited in patent US20040157836A1, “Sulfonamides having antiangiogenic and anticancer activity” (priority 2002, published 2004).

Molecular target: type 2-methionine aminopeptidase (MetAP-2) (Homo sapiens, UniProt P50579)
Conditions: reported in Proc. Natl. Acad. Sci. USA 94: 6099-6103 (1997) and Chemistry and Biology, 4(6): 461-471 (1997)

Sequence of type 2-methionine aminopeptidase (MetAP-2) (P50579 whole entry, species assumed): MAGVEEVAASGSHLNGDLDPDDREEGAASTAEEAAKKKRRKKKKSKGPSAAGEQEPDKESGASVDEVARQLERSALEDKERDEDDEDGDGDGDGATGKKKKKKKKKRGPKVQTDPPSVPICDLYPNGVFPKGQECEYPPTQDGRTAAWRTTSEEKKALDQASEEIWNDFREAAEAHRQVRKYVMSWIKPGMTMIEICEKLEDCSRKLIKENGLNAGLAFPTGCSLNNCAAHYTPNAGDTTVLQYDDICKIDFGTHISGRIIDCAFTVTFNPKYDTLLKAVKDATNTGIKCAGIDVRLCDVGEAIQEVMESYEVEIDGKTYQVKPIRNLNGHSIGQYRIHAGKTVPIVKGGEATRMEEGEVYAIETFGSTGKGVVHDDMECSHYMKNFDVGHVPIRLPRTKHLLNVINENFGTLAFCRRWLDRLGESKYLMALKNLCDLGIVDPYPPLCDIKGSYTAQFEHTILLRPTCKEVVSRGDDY

## CO[C@@H]1[C@H](OC(=O)NC(=O)CCl)CC[C@]2(CO2)[C@H]1[C@@]1(C)O[C@@H]1CC=C(C)C [AGM-1470]
  bind to type 2-methionine aminopeptidase (MetAP-2): bind
